Assay results as given in the supplement of paper PMC10307832.

Columns and labels:
Assay in all cases: relative viability (nuclei count vs DMSO), 5 days (fraction); higher = more cells survive
[1] = compound: CC[C@H](C)N1C=C(C2=C(C=C(C=C21)C3=CN=C(C=C3)N4CCNCC4)C(=O)NCC5=C(C=C(NC5=O)C)C)C [GSK126] + CC(=O)Nc1cccc(-n2c(=O)n(C3CC3)c(=O)c3c(Nc4ccc(I)cc4F)n(C)c(=O)c(C)c32)c1 [Trametinib] (partner 0.02 µM)
Method in brief: (§1)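 Lung cancer cell lines in 1536-well plates were dosed by pin tool the day after seeding, either with one drug alone or with a fixed anchor-drug dose plus five library-drug doses (not always all listed) in √10 steps. After 5 days, cells were fixed and their nuclei stained in one step (final 0.05% Triton X-100, 1% formaldehyde, 1 ug/ml Hoechst), then counted on 4× images. Relative viability is the nuclei count in treated wells divided by that in vehicle wells. Values are medians of duplicate plates.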

[2] = compound: C1CC(C1)(C(=O)O)C(=O)O.[NH2-].[NH2-].[Pt+2] [Carboplatin] + Cc1cc(Nc2cc(N3CCN(C)CC3)nc(Sc3ccc(NC(=O)C4CC4)cc3)n2)n[nH]1 [Tozasertib] (partner 0.1 µM)
Method in brief: as §1

[3] = compound: NS(=O)(=O)OC[C@@H]1C[C@@H](n2ccc3c(N[C@H]4CCc5ccccc54)ncnc32)C[C@@H]1O [MLN4924] + Cc1nc(Nc2ncc(C(=O)Nc3c(C)cccc3Cl)s2)cc(N2CCN(CCO)CC2)n1 [Dasatinib] (partner 0.075 µM)
Method in brief: as §1

[4] = compound: CC[C@H](C)N1C=C(C2=C(C=C(C=C21)C3=CN=C(C=C3)N4CCNCC4)C(=O)NCC5=C(C=C(NC5=O)C)C)C [GSK126] + Nc1nc2[nH]cc(CCc3ccc(C(=O)N[C@@H](CCC(=O)O)C(=O)O)cc3)c2c(=O)[nH]1 [Pemetrexed] (partner 0.2 µM)
Method in brief: as §1

| Cell Line | relative viability ([1]; first compound 0.08 µM) | relative viability ([1]; first compound 0.253 µM) | relative viability ([1]; first compound 0.8 µM) | relative viability ([1]; first compound 2.53 µM) | relative viability ([1]; first compound 8 µM) | relative viability ([2]; first compound 0.08 µM) | relative viability ([2]; first compound 0.253 µM) | relative viability ([2]; first compound 0.8 µM) | relative viability ([2]; first compound 2.53 µM) | relative viability ([2]; first compound 8 µM) | relative viability ([3]; first compound 0.04 µM) | relative viability ([3]; first compound 0.1265 µM) | relative viability ([3]; first compound 0.4 µM) | relative viability ([3]; first compound 1.265 µM) | relative viability ([3]; first compound 4 µM) | relative viability ([4]; first compound 0.08 µM) | relative viability ([4]; first compound 0.253 µM) | relative viability ([4]; first compound 0.8 µM) | relative viability ([4]; first compound 2.53 µM) | relative viability ([4]; first compound 8 µM) |
| --- | --- | --- | --- | --- | --- | --- | --- | --- | --- | --- | --- | --- | --- | --- | --- | --- | --- | --- | --- | --- |
| NCI-H1755 | 0.771 | 0.736 | 0.777 | 0.826 | 0.793 | 0.57 | 0.587 | 0.543 | 0.535 | 0.484 | 0.417 | 0.464 | 0.463 | 0.237 | 0.221 | 0.401 | 0.483 | 0.402 | 0.403 | 0.36 |
| NCI-H1793 | 0.432 | 0.423 | 0.457 | 0.384 | 0.338 | 0.446 | 0.386 | 0.301 | 0.317 | 0.501 | 0.384 | 0.366 | 0.408 | 0.345 | 0.325 | 0.981 | 0.825 | 0.876 | 0.916 | 0.932 |
| NCI-H1915 | 0.344 | 0.29 | 0.313 | 0.315 | 0.332 | 0.494 | 0.455 | 0.411 | 0.364 | 0.331 | 0.352 | 0.353 | 0.318 | 0.222 | 0.177 | 0.573 | 0.484 | 0.504 | 0.477 | 0.484 |
| NCI-H1944 | 0.415 | 0.373 | 0.435 | 0.443 | 0.413 | 0.245 | 0.247 | 0.263 | 0.24 | 0.237 | 0.218 | 0.232 | 0.23 | 0.155 | 0.133 | 0.719 | 0.641 | 0.607 | 0.654 | 0.567 |
| NCI-H1975 | 0.377 | 0.31 | 0.362 | 0.369 | 0.352 | 0.882 | 0.719 | 0.634 | 0.626 | 0.677 | 0.39 | 0.385 | 0.483 | 0.678 | 0.324 | 0.276 | 0.306 | 0.304 | 0.305 | 0.277 |
| NCI-H1993 | 0.517 | 0.525 | 0.448 | 0.54 | 0.467 | 0.61 | 0.643 | 0.575 | 0.593 | 0.635 | 0.622 | 0.524 | 0.557 | 0.491 | 0.51 | 0.583 | 0.555 | 0.628 | 0.586 | 0.687 |
| NCI-H2009 | 0.332 | 0.233 | 0.286 | 0.348 | 0.321 | 0.848 | 0.694 | 0.76 | 0.613 | 0.45 | 0.374 | 0.261 | 0.166 | 0.0589 | 0.0792 | 1.11 | 1.03 | 1 | 0.982 | 1.06 |
| NCI-H2023 | 0.718 | 0.6 | 0.646 | 0.533 | 0.603 | 0.419 | 0.394 | 0.402 | 0.262 | 0.158 | 0.618 | 0.602 | 0.325 | 0.0611 | 0.0616 | 0.251 | 0.231 | 0.224 | 0.268 | 0.13 |
| NCI-H2085 | 0.614 | 0.658 | 0.554 | 0.569 | 0.568 | 0.899 | 0.875 | 0.727 | 0.902 | 0.788 | 0.215 | 0.226 | 0.339 | 0.393 | 0.292 | 1.03 | 0.874 | 0.894 | 0.854 | 0.978 |
| NCI-H2087 | 0.223 | 0.211 | 0.246 | 0.2 | 0.2 | 0.272 | 0.242 | 0.23 | 0.272 | 0.226 | 0.742 | 0.574 | 0.533 | 0.126 | 0.0652 | 0.611 | 0.666 | 0.685 | 0.645 | 0.648 |
| NCI-H2126 | 0.552 | 0.576 | 0.536 | 0.494 | 0.564 | 0.971 | 0.915 | 0.882 | 0.828 | 0.732 | 0.647 | 0.617 | 0.55 | 0.201 | 0.23 | 0.71 | 0.725 | 0.702 | 0.686 | 0.645 |
| NCI-H2170 | 1.05 | 0.964 | 0.893 | 0.891 | 1.03 | 0.732 | 0.687 | 0.642 | 0.71 | 0.535 | 0.866 | 0.767 | 0.264 | 0.127 | 0.129 | 0.249 | 0.245 | 0.271 | 0.256 | 0.264 |
| NCI-H2228 | 0.677 | 0.502 | 0.407 | 0.606 | 0.513 | 0.276 | 0.252 | 0.246 | 0.225 | 0.209 | 0.524 | 0.638 | 0.14 | 0.107 | 0.11 | 0.374 | 0.312 | 0.354 | 0.312 | 0.392 |
| NCI-H2342 | 0.786 | 0.739 | 0.815 | 0.869 | 0.984 | 0.555 | 0.529 | 0.502 | 0.406 | 0.547 | 0.343 | 0.344 | 0.339 | 0.354 | 0.355 | 0.851 | 0.762 | 0.744 | 0.879 | 0.881 |
| NCI-H2347 | 0.289 | 0.276 | 0.261 | 0.303 | 0.298 | 0.54 | 0.547 | 0.637 | 0.633 | 0.56 | 0.265 | 0.369 | 0.231 | 0.218 | 0.244 | 0.422 | 0.396 | 0.448 | 0.441 | 0.461 |
